Assay results as given in ChEMBL document CHEMBL3045510, “Phyllostoxin and phyllostin, bioactive metabolites produced by Phyllosticta cirsii, a potential mycoherbicide for Cirsium arvense biocontrol” (J Agric Food Chem, 2008).
Activity calls are given as the source filed them. No cut-off for these calls is given here.

Experiments:
[1] = tested on: Artemia salina; experiment: Toxicity against Artemia salina (brine shrimp) up to 1 mM; type: organism-based; settings: in vivo
[2] = tested on: Lactobacillus sp.; experiment: Antimicrobial activity against Lactobacillus sp. up to 100 ug/disk; type: functional, organism-based
[3] = tested on: Escherichia coli; experiment: Antimicrobial activity against Escherichia coli up to 100 ug/disk; type: functional, organism-based
[4] = tested on: Geotrichum candidum; experiment: Antimicrobial activity against Galactomyces geotrichum up to 100 ug/disk; type: functional, organism-based
[5] = tested on: Cirsium arvense; experiment: Herbicidal activity against Cirsium arvense (Canada thistle) assessed induction of necrosis on leaves as 1 mM; type: functional, organism-based

| Structure (SMILES) | Activity [1] | Activity [2] | Activity [3] | Activity [4] | Activity [5] |
| --- | --- | --- | --- | --- | --- |
| CCC(=O)C1(C)C(=O)c2c1ccc(C)c2OC(C)=O (stereo not given) [PHYLLOSTOXIN] | Non-toxic | inactive | inactive | inactive | Active |
| COC(=O)C1=C[C@@H](O)[C@@H]2OC(=O)[C@@H](C)O[C@H]2C1 [PHYLLOSTIN] | Non-toxic | inactive | inactive | inactive | inactive |
